Literature values in patent US10906892B2, “LFA-1 inhibitor and methods of preparation and polymorph thereof” (NOVARTIS PHARMACEUTICALS CORPORATION, priority 2012, dated 2021).

Legend:
[1] = biological target: Lymphocyte Function-Associated Antigen-1 (LFA-1) interactions with ICAM (Homo sapiens, UniProt P20701); details: background statement, no data given
[2] = background statement, no data given

Lymphocyte Function-Associated Antigen-1 (LFA-1) interactions with ICAM, sequence (P20701 26-1170): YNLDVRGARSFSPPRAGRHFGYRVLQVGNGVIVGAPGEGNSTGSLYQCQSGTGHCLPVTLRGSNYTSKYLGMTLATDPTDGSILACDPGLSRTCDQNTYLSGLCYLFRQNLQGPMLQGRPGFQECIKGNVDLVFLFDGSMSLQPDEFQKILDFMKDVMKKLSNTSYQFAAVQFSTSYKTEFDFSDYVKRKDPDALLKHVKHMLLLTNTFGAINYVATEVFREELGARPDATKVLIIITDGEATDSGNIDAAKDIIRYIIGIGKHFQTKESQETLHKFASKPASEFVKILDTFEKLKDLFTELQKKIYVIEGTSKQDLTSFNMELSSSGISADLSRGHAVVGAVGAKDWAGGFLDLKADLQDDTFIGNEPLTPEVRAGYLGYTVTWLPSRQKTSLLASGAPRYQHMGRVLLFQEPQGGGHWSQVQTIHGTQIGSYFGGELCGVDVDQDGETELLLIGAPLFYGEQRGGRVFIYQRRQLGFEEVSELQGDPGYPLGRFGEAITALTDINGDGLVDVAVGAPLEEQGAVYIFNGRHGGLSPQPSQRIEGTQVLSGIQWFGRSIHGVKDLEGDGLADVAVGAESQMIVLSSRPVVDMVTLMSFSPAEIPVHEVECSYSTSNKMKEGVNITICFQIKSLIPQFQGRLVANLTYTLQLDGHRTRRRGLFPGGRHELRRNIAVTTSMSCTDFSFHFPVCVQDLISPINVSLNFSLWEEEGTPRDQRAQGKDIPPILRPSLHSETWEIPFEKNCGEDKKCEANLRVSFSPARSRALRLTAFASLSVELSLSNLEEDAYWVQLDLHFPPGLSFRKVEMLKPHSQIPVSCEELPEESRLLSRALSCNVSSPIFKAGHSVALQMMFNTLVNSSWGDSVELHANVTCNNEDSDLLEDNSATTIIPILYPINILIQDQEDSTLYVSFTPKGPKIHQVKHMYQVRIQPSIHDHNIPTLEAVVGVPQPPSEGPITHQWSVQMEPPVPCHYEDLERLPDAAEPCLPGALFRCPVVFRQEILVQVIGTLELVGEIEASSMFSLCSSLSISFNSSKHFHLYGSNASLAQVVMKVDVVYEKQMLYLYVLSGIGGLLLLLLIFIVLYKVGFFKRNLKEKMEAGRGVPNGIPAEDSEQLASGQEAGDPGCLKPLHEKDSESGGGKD
Lymphocyte Function-Associated Antigen-1 (LFA-1) interactions with ICAM, sequence (P05107 23-769 partner): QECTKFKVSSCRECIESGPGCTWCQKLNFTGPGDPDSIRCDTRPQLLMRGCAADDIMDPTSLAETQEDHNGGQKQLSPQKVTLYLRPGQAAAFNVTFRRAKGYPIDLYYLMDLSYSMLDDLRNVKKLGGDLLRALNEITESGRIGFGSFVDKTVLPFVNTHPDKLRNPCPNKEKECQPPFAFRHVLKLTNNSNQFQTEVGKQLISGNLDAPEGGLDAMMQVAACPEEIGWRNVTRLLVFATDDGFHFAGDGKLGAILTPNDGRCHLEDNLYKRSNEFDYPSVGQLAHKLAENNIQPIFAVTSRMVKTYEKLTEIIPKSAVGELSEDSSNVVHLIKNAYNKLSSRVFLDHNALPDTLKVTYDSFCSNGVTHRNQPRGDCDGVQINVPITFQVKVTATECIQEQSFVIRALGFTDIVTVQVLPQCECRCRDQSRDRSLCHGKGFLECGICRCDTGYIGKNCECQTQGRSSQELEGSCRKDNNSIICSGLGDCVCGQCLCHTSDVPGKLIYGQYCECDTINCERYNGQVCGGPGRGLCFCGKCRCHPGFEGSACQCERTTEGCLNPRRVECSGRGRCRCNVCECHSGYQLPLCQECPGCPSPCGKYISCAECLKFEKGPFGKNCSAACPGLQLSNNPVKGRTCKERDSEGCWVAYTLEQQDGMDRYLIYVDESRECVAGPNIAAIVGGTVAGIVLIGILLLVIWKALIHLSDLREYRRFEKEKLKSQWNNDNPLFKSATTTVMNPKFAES

CS(=O)(=O)c1cccc(C[C@H](NC(=O)c2c(Cl)cc3c(c2Cl)CCN(C(=O)c2ccc4ccoc4c2)C3)C(=O)O)c1 [Formula I]
inhibition of LFA-1 interactions with ICAM [1]: effective inhibitor | systemic clearance [2]: rapid systemic clearance
